According to patent US20090197279A1, “MICROTUBULE SYNTHESIS AS A BIOMARKER” (KINEMED, INC., priority 2005, published 2009):

What was measured:
[1] = tested on: total hippocampal proteins; assay: Fractional synthesis of total hippocampal proteins; assay type: in vivo, mouse; details: coadministration of 0.66 pmol Rp-cAMP with glutamate
Method: FIG. 7 depicts the effects of ICV glutamate on the relative amounts of MT subpopulations and on total protein synthesis in murine hippocampus. (A, B) Tubulin abundances are measured by Western blot analysis for α-tubulin at 8 hour (A) and 24 hours (B). Subpopulations were total extract (total), free tubulin dimers, tau-associated MTs, tau-nonassociated (MAP2/STOP) MTs and cold stable (CS) MTs. Mock and glutamate infused ICVC mice are shown (cf. FIGS. 6A and B). […] (C) Fractional synthesis of total hippocampal proteins. Glutamate increased protein synthesis versus mock-treated animals (*p<0.01); this effect was blocked by coadministration with 0.66 pmol of Rp-cAMP (**p<0.02).
This hypothesis had not previously been tested in the living brain, however. To test this hypothesis, we used the methods of the invention disclosed herein. Mice were infused with 6 μl water containing 0.48 nmol glutamate (80 μM in the infusate), or glutamate plus 0.66 pmol Rp-cAMP (110 nM in the infusate). Label incorporation into hippocampal tubulin dimers and into microtubule polymers was then quantified after administration of ^2H2O for 8 hours or 24 hours (FIGS. 7A and 7B). […] These findings further strengthen the previously reported correlation between hippocampus glutamate NMDA receptor-dependent learning (long-term potentiation) and protein synthesis (Kandel, E. R. The molecular biology of memory storage: a dialogue between genes and synapses. Science 294, 1030-1038 (2001)). By the same criterion, the glutamate-induced program of changes in hippocampal microtubule dynamics shown in FIGS. 6 and 7 also alters hippocampal total protein synthesis in vivo (data not show), further supporting the capacity of the invention disclosed herein to generate a biochemical record of basic neuroanatomic connectivity in the brain and thereby to reveal the dynamics of synaptogenesis in vivo.

[2] = tested on: hippocampal tubulin dimers and tau-associated, tau-nonassociated (MAP2/STOP) and cold-stable microtubules; assay: 2H label incorporation into hippocampal tubulin dimers and microtubule fractions after ICVC infusion (2H2O labeling, GC/MS); assay type: in vivo, mouse
Method: In (A) and (B), mice received ICVC infusions of 6 μl water alone or containing 0.48 nmol glutamate (80 μM in the infusate), or glutamate plus 0.66 pmol Rp-cAMP (110 nM in the infusate). Animals were then labeled with ^2H2O for 8 hours (A) or 24 hours (B). At sacrifice, the hippocampal post-nuclear supernatant was fractionated as show in FIG. 5A; a separate aliquot was used for isolation of cold stable (CS) MTs (FIG. 5D). Glutamate injection stimulated label incorporation into new MAP2/STOP-MTs at 8 and 24 hours, and CS MTs at 24 hours; both were blocked by Rp-cAMP. In order to correct the effects of pharmacologic intervention on MT dynamics for the confounding changes in tubulin synthesis, the numbers above each bar express ^2H label incorporation into MT as a percentage of ^2H labeling in the corresponding tubulin dimer fractions. (C) Dose dependence of glutamate effects. ^2H2O labeling was initiated at time zero, 6 μl ICVC infusions with the indicated concentrations of glutamate were performed at 24 hours, and labeling was continued until sacrifice at 48 hours (24 hours post glutamate infusion). Hippocampal MTs were fractionated into tau-associated, MAP2-associated, and non-associated (STOP-associated) MT fractions, as in FIG. 5A. In all experiments, bars represent % new tubulin (mean±SD, n=3).
Tubulin was purified using minor modifications of protocols described previously (Fanara, P., Oback, B., Ashman, K., Podtelejnikov, A., Brandt, R. Identification of MINUS, a small polypeptide that functions as a microtubule nucleation suppressor. EMBO J. 18, 565-577 (1999); Fanara, P. et al. In vivo measurement of microtubule dynamics using stable isotope labeling with heavy water. Effect of taxanes. J. Biol. Chem. 279, 49940-49947 (2004). Briefly, cultured neurons were gently scraped off culture plates, washed in phosphate-buffered saline (PBS), and homogenized in microtubule-stabilizing buffer. For purification ex vivo, mice were anesthetized with isoflurane and euthanized by cervical dislocation. Brains were rapidly removed and washed in microtubule-stabilizing buffer (MSB); hippocampi were dissected and gently homogenized in MSB. To separate cytosolic tubulin dimers from microtubule polymers, post-nuclear supernatants were centrifuged at 190,000×g at 20° C. for 35 min. The supernatant or non-microtubule fraction (containing the soluble dimeric tubulin) was separated from the pellet or microtubule fraction (containing polymeric tubulin), quick-frozen and stored at −20° C. Microtubule pellets were further fractionated by sequential immunoaffinity chromatography steps (FIG. 3). In order to isolate tau-associated microtubules, TAU5 antibody was covalently coupled to epoxy-activated Sepharose beads (Amersham Pharmacia Biotech) at a concentration of 0.25 mg/ml. Approximately 0.2 mg of the microtubule pellet was incubated with TAU-5 beads in 0.5 ml MSB for 1 hour at room temperature. Unbound material was removed, the beads were washed three times in 0.5 ml of MSB, and bound material was eluted in 0.5 ml MSB containing 1M NaCl. In some experiments, MAP2-associated microtubules were captured from the TAU5-unbound material by immunoaffinity chromatography on epoxy-activated Sepharose beads coupled to MAP2 antibody (0.5 mg antibody per ml beads) using the same protocol. The relative abundance of tubulin in each preparation (Tubulin dimers and TAU5-bound, MAP2-bound, and unbound microtubule fractions) was quantified by Western blot, and tubulin from these fractions was further purified by ion exchange and size exclusion chromatography, as previously described (Fanara, P. et al. In vivo measurement of microtubule dynamics using stable isotope labeling with heavy water. Effect of taxanes. J. Biol. Chem. 279, 49940-49947 (2004)). […]

[3] = Toxicity of maintained body water 2H2O enrichment; assay type: in vivo; details: 1-10% of total body water labeled, maintained for weeks or months; >100 human subjects
Text: Relatively high body water enrichments of ^2H2O (e.g., 1-10% of the total body water is labeled) may be achieved relatively inexpensively using the techniques of the invention. […] This finding in a large number of human subjects (>100 people) is contrary to previous concerns about vestibular toxicities at high doses of ^2H2O. One of the Applicants has discovered that as long as rapid changes in body water enrichment are prevented (e.g., by initial administration in small, divided doses), high body water enrichments of ^2H2O can be maintained with no toxicities. For example, the low expense of commercially available ^2H2O allows long-term maintenance of enrichments in the 1-5% range at relatively low expense (e.g., calculations reveal a lower cost for 2 months labeling at 2% ^2H2O enrichment, and thus 7-8% enrichment in the alanine precursor pool, than for 12 hours labeling of ^2H-leucine at 10% free leucine enrichment, and thus 7-8% enrichment in leucine precursor pool for that period).

| SMILES | glutamate-induced increase in total hippocampal protein synthesis [1] | glutamate-stimulated label incorporation into new MAP2/STOP-MTs ([2]; 0.48 nmol glutamate plus 0.66 pmol Rp-cAMP ICVC, 8 and 24 hours) | glutamate-stimulated label incorporation into CS MTs ([2]; 0.48 nmol glutamate plus 0.66 pmol Rp-cAMP ICVC, 24 hours) | fractional synthesis of tubulin dimers and microtubules ([2]; glutamate plus 0.66 pmol Rp-cAMP, 24 hours) | toxicity [3] |
| --- | --- | --- | --- | --- | --- |
| Nc1ncnc2c1ncn2[C@@H]1O[C@@H]2COP(O)(=S)O[C@H]2[C@H]1O (single isomer, unassigned) [Rp-cAMP, adenosine-3′,5′-monophosphorothioate, Rp-isomer] | blocked | blocked | blocked | significantly blocked |  |
| [2H]O[2H] [^2H2O] |  |  |  |  | without any evidence of toxicity |
